Results: US6620593B1, “Method for safety evaluation of chemical compound using recombinant yeast expressing human cytochrome P450” (Sumitomo Chemical Company, Limited, priority 1993, dated 2003)

Tests used:
Assay type in all cases: cell-based
human P450 2E1 = human P450 2E1 (Homo sapiens, UniProt P05181); experiment: Ames test using yeast S-9 Mix fraction and microsomal fraction, human P450 2E1 as metabolic activation source
Text: (§1) The toxic effects, in particular mutagenicity, of the resulting metabolites can be determined by a conventional biological analytic method such as the Ames Test. For example, the metabolites present in the reaction solution are allowed to react with mutant bacteria such as histidine requiring Salmonella strain (Salmonella typhimurium (his−)), or tryptophan requiring Escherichia coil (Escherichia coil (trp−)), and then determine whether the metabolites cause the back mutation of the bacteria whether the colonies of revertant which is not requiring the amino acid (His+ or Trp+) are formed, and, if formed, how many colonies. In place of the bacteria, mammalian cells such as MCL-5 cells, which are sensitive to cell toxicity of a chemical compound (U.S. Pat. No. 4,532,204), can be used.
(§2) The Ames test method was in accordance with the customary method described, for example, in Mutat. Res., (1975) 31, 347. 2-Aminoanthrathene which is an arylamine type compound was used as a specimen compound. (1) Rat S-9 Mix supernatant fraction (obtained by homogenizing liver and then subjected to centrifugation (9000×g, 10 min), manufactured by Kikkoman) containing each kind of rat P450 molecular species at the concentration of 1200 pmol per 1 sample and (2) Yeast S-9 Mix fraction obtained from each kind of yeast cells expressing human P450 or a microsomal fraction prepared from the yeast S-9 Mix fraction were used as a metabolic activation source in the Ames test.

[1] = biological target: T1, human cytochrome P450 2C8 (Homo sapiens, UniProt P10632); experiment: Ames test using yeast S-9 Mix fraction and microsomal fraction, human P450 2C8 as metabolic activation source
T1 construct: The entire protein coding region of the P450 2C8 gene was amplified by the PCR method; made in house; host or cells: Saccharomyces cerevisiae AH22 (whole transformed cells, S-9 Mix or microsomal fractions)
T1 sequence (P10632 1-490): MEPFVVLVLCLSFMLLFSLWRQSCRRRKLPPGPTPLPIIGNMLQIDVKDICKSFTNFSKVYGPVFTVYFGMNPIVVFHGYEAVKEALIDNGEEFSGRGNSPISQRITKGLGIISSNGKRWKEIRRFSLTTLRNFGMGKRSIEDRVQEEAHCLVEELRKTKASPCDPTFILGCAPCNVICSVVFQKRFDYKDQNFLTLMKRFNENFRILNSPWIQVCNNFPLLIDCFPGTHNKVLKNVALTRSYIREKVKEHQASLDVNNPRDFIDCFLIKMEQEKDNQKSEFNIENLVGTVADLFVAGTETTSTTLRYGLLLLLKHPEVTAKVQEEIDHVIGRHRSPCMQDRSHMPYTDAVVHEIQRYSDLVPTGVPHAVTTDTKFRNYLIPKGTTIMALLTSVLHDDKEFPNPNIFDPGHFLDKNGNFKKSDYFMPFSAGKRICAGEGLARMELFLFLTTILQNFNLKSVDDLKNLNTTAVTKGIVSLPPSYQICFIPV
Text: as §1
(§3) The Ames test method was in accordance with the customary method described, for example, in Mutat. Res., (1975) 31, 347. 2-Aminoanthrathene which is an arylamine type compound was used as a specimen compound. […]

human P450 1A2 = biological target: T2, human P450 1A2 (Homo sapiens, UniProt P05177); experiment: Ames test using yeast S-9 Mix fraction and microsomal fraction, human P450 1A2 as metabolic activation source; design: made in house; host or cells: Saccharomyces cerevisiae AH22 (whole transformed cells, S-9 Mix or microsomal fractions)
T2 sequence (P05177 1-516): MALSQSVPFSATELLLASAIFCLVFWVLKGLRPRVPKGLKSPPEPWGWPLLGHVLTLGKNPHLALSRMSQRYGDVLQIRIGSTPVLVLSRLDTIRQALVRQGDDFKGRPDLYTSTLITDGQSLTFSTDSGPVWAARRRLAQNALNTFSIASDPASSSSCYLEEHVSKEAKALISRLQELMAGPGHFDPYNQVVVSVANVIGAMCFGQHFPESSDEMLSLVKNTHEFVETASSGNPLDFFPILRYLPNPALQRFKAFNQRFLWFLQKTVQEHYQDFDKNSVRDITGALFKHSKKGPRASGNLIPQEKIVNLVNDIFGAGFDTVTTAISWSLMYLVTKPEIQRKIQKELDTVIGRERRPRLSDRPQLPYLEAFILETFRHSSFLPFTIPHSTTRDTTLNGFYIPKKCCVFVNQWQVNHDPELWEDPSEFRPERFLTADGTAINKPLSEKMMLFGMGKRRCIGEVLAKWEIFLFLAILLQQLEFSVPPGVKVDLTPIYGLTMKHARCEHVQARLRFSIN
Text: as §1, §2

[2] = tested on: human cytochrome P450 3A4; experiment: Ames test using yeast S-9 Mix fraction and microsomal fraction, human P450 3A4 as metabolic activation source
Text: as §1, §3

[3] = tested on: human cytochrome P450 2A6; experiment: Ames test using yeast S-9 Mix fraction and microsomal fraction, human P450 2A6 as metabolic activation source
Text: as §1, §3

[4] = Table 1 hydroxylation activity, metabolic activation in Ames test
[5] = compound at 1 μg/plate (90 mm dia.), yeast S-9 Mix fraction and microsomal fraction

Sequence of human P450 2E1 (P05181 whole entry): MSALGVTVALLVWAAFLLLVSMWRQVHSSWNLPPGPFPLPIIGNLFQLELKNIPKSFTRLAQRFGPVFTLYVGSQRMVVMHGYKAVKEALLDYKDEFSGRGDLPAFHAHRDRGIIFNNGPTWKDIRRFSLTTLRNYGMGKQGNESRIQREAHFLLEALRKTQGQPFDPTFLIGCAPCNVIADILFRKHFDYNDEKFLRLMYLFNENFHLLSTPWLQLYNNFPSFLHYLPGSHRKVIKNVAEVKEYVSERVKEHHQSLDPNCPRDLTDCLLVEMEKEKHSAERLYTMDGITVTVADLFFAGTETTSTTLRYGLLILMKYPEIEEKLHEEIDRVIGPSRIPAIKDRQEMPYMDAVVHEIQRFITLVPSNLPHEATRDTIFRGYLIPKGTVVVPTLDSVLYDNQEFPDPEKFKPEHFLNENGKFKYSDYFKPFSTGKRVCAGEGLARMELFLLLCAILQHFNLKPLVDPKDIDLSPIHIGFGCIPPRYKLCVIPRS

## Nc1ccc2cc3ccccc3cc2c1 [2-Aminoanthracene]
Human P450 2E1
  Ames test activity in words, human P450 2E1: moderate activity
Human P450 2E1; [4]
  Activity in Table 1 for 2-aminoanthracene (Ames test), human P450 2E1: + +
Human P450 2E1; [5]
  Revertant colonies detected, yeast expressing human P450 2E1 (AH22/p2E1R): more than 1000 revertant colonies
[1]
  Ames test revertant colonies in words, human cytochrome P450 2C8: not found
[1]; [4]
  Activity in Table 1 for 2-aminoanthracene (Ames test), human P450 2C8: −
Human P450 1A2
  Ames test activity in words, human cytochrome P450 1A2: high activity
Human P450 1A2; 20 pmol of P450 1A2 used
  Concentration at which mutagenicity can be detected: about 0.1 μg
Human P450 1A2; [4]
  Activity in Table 1 for 2-aminoanthracene (Ames test), human P450 1A2: + + +
Human P450 1A2; [5]
  Revertant colonies detected, yeast expressing human P450 1A2 (AH22/p1A2R): more than 1000 revertant colonies
[2]
  Ames test revertant colonies in words, human cytochrome P450 3A4: not found
[2]; [4]
  Activity in Table 1 for 2-aminoanthracene (Ames test), human P450 3A4: −
[3]
  Ames test revertant colonies in words, human cytochrome P450 2A6: not found
[3]; [4]
  Activity in Table 1 for 2-aminoanthracene (Ames test), human P450 2A6: −
